# Counter-ions that a name gives are not always drawn.
# Target: T1, human recombinant HPK1 (Homo sapiens, UniProt Q92918)
# T1 construct: purchased BPS Bioscience
# Test: Inhibitory activity against human recombinant HPK1 (TR-FRET)
# Assay type: biochemical
# Settings: ULight-p70S6K peptide, ATP at Km, room temperature, 1 hour, 0.32 to 1000 nM compound
# Summary of the method: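 IC50 classes A–D use 10, 50 and 100 nM cut-offs, derived from TR-FRET signal inhibition relative to DMSO controls. Human recombinant HPK1 phosphorylated ULight-p70S6K peptide at Km ATP for 1 h, room temperature, pH 7.4; test range 0.32–1000 nM final, detection with Eu-labelled antibody after EDTA quench.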
# T1 sequence (Q92918 whole entry): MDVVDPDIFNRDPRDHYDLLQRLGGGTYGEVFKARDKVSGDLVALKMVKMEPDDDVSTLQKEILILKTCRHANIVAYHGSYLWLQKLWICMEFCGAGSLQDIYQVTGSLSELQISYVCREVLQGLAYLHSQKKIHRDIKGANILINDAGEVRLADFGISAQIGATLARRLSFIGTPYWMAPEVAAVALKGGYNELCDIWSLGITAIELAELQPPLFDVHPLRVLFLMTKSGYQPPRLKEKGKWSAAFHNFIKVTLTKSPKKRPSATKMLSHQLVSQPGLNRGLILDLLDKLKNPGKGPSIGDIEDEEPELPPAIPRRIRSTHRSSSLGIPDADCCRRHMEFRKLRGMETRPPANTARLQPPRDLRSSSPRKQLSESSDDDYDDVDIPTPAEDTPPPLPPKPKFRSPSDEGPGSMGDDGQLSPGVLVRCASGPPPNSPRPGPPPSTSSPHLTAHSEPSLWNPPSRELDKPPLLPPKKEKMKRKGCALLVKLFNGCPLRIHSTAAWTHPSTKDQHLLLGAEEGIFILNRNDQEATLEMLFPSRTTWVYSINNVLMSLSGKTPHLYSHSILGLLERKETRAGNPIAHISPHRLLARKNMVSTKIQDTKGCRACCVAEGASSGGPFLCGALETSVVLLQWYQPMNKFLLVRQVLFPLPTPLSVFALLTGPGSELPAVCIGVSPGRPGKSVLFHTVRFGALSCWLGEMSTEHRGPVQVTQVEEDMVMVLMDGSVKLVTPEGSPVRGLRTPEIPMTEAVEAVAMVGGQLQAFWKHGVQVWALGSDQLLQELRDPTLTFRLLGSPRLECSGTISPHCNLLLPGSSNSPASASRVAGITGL
row,Compound,IC50 [nM]
1,"COc1cccc(F)c1-c1nccc(Nc2cc(N3CC[C@@H](N)[C@H](C)C3)c(-c3cnn(C(F)F)c3)cn2)n1 [Example 268, N-(4-((3R,4R)-4-amino-3-methylpiperidin-1-yl)-5-(1-(difluoromethyl)-1H-pyrazol-4-yl)pyridin-2-yl)-2-(2-fluoro-6-methoxyphenyl)pyrimidin-4-amine hydrochloride]",≤ 10
2,"COc1cccc(F)c1-c1nccc(Nc2cc(N3CCC[C@H](N)C3)c(-c3ccc(C(=O)N[C@H]4CC[C@H](O)CC4)cc3)cn2)n1 [Example 289, 4-(4-((S)-3-aminopiperidin-1-yl)-6-((2-(2-fluoro-6-methoxyphenyl)pyrimidin-4-yl)amino)pyridin-3-yl)-N-((1r,4S)-4-hydroxycyclohexyl)benzamide hydrochloride]",≤ 10
3,"COc1cc(F)cc(F)c1-c1nc(Nc2cc(N3CC[C@@H](F)[C@H](N)C3)c(-c3cnn(C(C)C)c3)cn2)ccc1C#N [Example 340, 6-((4-((3R,4R)-3-amino-4-fluoropiperidin-1-yl)-5-(1-isopropyl-1H-pyrazol-4-yl)pyridin-2-yl)amino)-2-(2,4-difluoro-6-methoxyphenyl)nicotinonitrile hydrochloride]",≤ 10
4,"COc1cccc(F)c1-c1nc(Nc2cc(N3CCC[C@H](O)C3)c(-c3cnn(C4CCOCC4)c3)cn2)ccc1N [Example 177, (3S)-1-(2-((5-amino-6-(2-fluoro-6-methoxyphenyl)pyridin-2-yl)amino)-5-(1-(tetrahydro-2H-pyran-4-yl)-1H-pyrazol-4-yl)pyridin-4-yl)piperidin-3-ol]",≤ 10
5,"COc1cccc(F)c1-c1nccc(Nc2cc(N3CC[C@H](N)[C@H](C)C3)c(-c3cnn(C(F)F)c3)cn2)n1 [Example 297, N-(4-((3R,4S)-4-amino-3-methylpiperidin-1-yl)-5-(1-(difluoromethyl)-1H-pyrazol-4-yl)pyridin-2-yl)-2-(2-fluoro-6-methoxyphenyl)pyrimidin-4-amine hydrochloride]",≤ 10
6,"COc1cc(F)cc(F)c1-c1nccc(Nc2cc(N3C[C@@H](C)C[C@H](N)C3)c(-c3cnn(C(F)F)c3)cn2)n1 [Example 210, N-(4-((3S,5S)-3-amino-5-methylpiperidin-1-yl)-5-(1-(difluoromethyl)-1H-pyrazol-4-yl)pyridin-2-yl)-2-(2,4-difluoro-6-methoxyphenyl)pyrimidin-4-amine hydrochloride]",≤ 10
7,"COc1cc(F)cc(F)c1-c1nccc(Nc2cc(N3CCC[C@H](O)C3)c(-c3cnn(CC(F)(F)F)c3)cn2)n1 [Example 174, (S)-1-(2-((2-(2,4-difluoro-6-methoxyphenyl)pyrimidin-4-yl)amino)-5-(1-(2,2,2-trifluoroethyl)-1H-pyrazol-4-yl)pyridin-4-yl)piperidin-3-ol]",≤ 10
8,"COc1cccc(F)c1-c1nc(Nc2cc(N3CCC[C@H](N)C3)c(-c3cnn(C4CCOCC4)c3)cn2)ccc1[N+](=O)[O-] [Example 70, 4-((S)-3-aminopiperidin-1-yl)-N-(6-(2-fluoro-6-methoxyphenyl)-5-nitropyridin-2-yl)-5-(1-(tetrahydro-2H-pyran-4-yl)-1H-pyrazol-4-yl)pyridin-2-amine hydrochloride]",≤ 10
9,"COCCn1cc(-c2cnc(Nc3ccnc(-c4c(F)cccc4OC)n3)cc2N2CCC[C@H](N)C2)cn1 [Example 91, (S)-N-(4-(3-aminopiperidin-1-yl)-5-(1-(2-methoxyethyl)-1H-pyrazol-4-yl)pyridin-2-yl)-2-(2-fluoro-6-methoxyphenyl)pyrimidin-4-amine hydrochloride]",≤ 10
10,"COc1cccc(F)c1-c1nccc(Nc2cc(N3CC[C@@H](N)C3)c(-c3cnn(C4CCOCC4)c3)cn2)n1 [Example 96, (R)-N-(4-(3-aminopyrrolidin-1-yl)-5-(1-(tetrahydro-2H-pyran-4-yl)-1H-pyrazol-4-yl)pyridin-2-yl)-2-(2-fluoro-6-methoxyphenyl)pyrimidin-4-amine hydrochloride]",≤ 10
11,"COc1cccc(F)c1-c1nccc(Nc2cc(N3CC[C@@H](F)[C@H](N)C3)c(-c3cnn(C(F)F)c3)cn2)n1 [Example 208, N-(4-((3R,4R)-3-amino-4-fluoropiperidin-1-yl)-5-(1-(difluoromethyl)-1H-pyrazol-4-yl)pyridin-2-yl)-2-(2-fluoro-6-methoxyphenyl)pyrimidin-4-amine hydrochloride]",≤ 10
12,"COc1cc(F)cc(F)c1-c1nccc(Nc2cc(N3C[C@@H](N)C[C@H](F)C3)c(-c3cnn(CC(F)(F)F)c3)cn2)n1 [Example 333, N-(4-((3S,5S)-3-amino-5-fluoropiperidin-1-yl)-5-(1-(2,2,2-trifluoroethyl)-1H-pyrazol-4-yl)pyridin-2-yl)-2-(2,4-difluoro-6-methoxyphenyl)pyrimidin-4-amine hydrochloride]",≤ 10
13,"COc1cccc(F)c1-c1nc(Nc2cc(N3CCC[C@H](N)C3)c(-c3cnn(C4CCOCC4)c3)cn2)ccc1C(N)=O [Example 129, 6-((4-((S)-3-aminopiperidin-1-yl)-5-(1-(tetrahydro-2H-pyran-4-yl)-1H-pyrazol-4-yl)pyridin-2-yl)amino)-2-(2-fluoro-6-methoxyphenyl)nicotinamide hydrochloride]",≤ 10
14,"COc1cccc(F)c1-c1nccc(Nc2cc(N(C)C3CCC(O)CC3)c(-c3cnn(C(F)F)c3)cn2)n1 [Example 214, (1S,4S)-4-((5-(1-(difluoromethyl)-1H-pyrazol-4-yl)-2-((2-(2-fluoro-6-methoxyphenyl)pyrimidin-4-yl)amino)pyridin-4-yl)(methyl)amino)cyclohexan-1-ol]",≤ 10
15,"COc1cc(F)cc(F)c1-c1nc(Nc2cc(N3CC[C@@H](C)[C@H](N)C3)c(-c3cnn(C(F)F)c3)cn2)ccc1N [Example 215, N^2-(4-((3S,4R)-3-amino-4-methylpiperidin-1-yl)-5-(1-(difluoromethyl)-1H-pyrazol-4-yl)pyridin-2-yl)-6-(2,4-difluoro-6-methoxyphenyl)pyridin-2,5-diamine hydrochloride]",≤ 10
16,"COc1cc(CO)cc(F)c1-c1nccc(Nc2cc(N3CCC[C@H](O)C3)c(-c3cnn(C4CCOCC4)c3)cn2)n1 [Example 161, (S)-1-(2-((2-(2-fluoro-4-(hydroxymethyl)-6-methoxyphenyl)pyrimidin-4-yl)amino)-5-(1-(tetrahydro-2H-pyran-4-yl)-1H-pyrazol-4-yl)pyridin-4-yl)piperidin-3-ol]",≤ 10
17,"COc1cccc(F)c1-c1nc(Nc2cc(N3CCC[C@H](O)C3)c(C(=O)NC3CC(O)C3)cn2)ccc1[N+](=O)[O-] (stereo partly drawn) [Example 196, 6-((6-(2-fluoro-6-methoxyphenyl)-5-nitropyridin-2-yl)amino)-N-(3-hydroxycyclobutyl)-4-((S)-3-hydroxypiperidin-1-yl)nicotinamide]",≤ 10
18,"COc1cccc(F)c1-c1nccc(Nc2cc(N3CCC[C@H](N)C3)c(-c3cnn(C4CNC4)c3)cn2)n1 [Example 168, (S)-N-(4-(3-aminopiperidin-1-yl)-5-(1-(azetidin-3-yl)-1H-pyrazol-4-yl)pyridin-2-yl)-2-(2-fluoro-6-methoxyphenyl)pyrimidin-4-amine hydrochloride]",≤ 10
19,"COc1cccc(F)c1-c1nccc(Nc2cc(N3CCC[C@](C)(N)C3)c(-c3cnn(C(F)F)c3)cn2)n1 [Example 206, (S)-N-(4-(3-amino-3-methylpiperidin-1-yl)-5-(1-(difluoromethyl)-1H-pyrazol-4-yl)pyridin-2-yl)-2-(2-fluoro-6-methoxyphenyl)pyrimidin-4-amine hydrochloride]",≤ 10
20,"COc1cccc(F)c1-c1nccc(Nc2cc(N3CCC[C@H](N)C3)c(-c3ccc(N4CCCC4=O)cc3)cn2)n1 [Example 259, (S)-1-(4-(4-(3-aminopiperidin-1-yl)-6-((2-(2-fluoro-6-methoxyphenyl)pyrimidin-4-yl)amino)pyridin-3-yl)phenyl)pyrrolidin-2-one hydrochloride]",≤ 10
21,"COc1cc(CN(C)C)cc(F)c1-c1nccc(Nc2cc(N3CCC[C@H](N)C3)c(-c3cnn(C(F)F)c3)cn2)n1 [Example 104, (S)-N-(4-(3-aminopiperidin-1-yl)-5-(1-(difluoromethyl)-1H-pyrazol-4-yl)pyridin-2-yl)-2-(4-((dimethylamino)methyl)-2-fluoro-6-methoxyphenyl)pyrimidin-4-amine hydrochloride]",≤ 10
22,"COc1cccc(F)c1-c1nccc(Nc2cc(N3CCC[C@H](N)C3)c(-c3ccc(C4CCN(C)CC4)nc3)cn2)n1 [Example 83, (S)-4-(3-aminopiperidin-1-yl)-N-(2-(2-fluoro-6-methoxyphenyl)pyrimidin-4-yl)-6′-(1-methylpiperidin-4-yl)-[3,3′-bipyridin]-6-amine hydrochloride]",≤ 10
23,"COc1cccc(F)c1-c1nc(Nc2cc(N3CCC[C@H](O)C3)c(-c3cnn(CC(F)(F)F)c3)cn2)ccc1C#N [Example 316, 2-(2-fluoro-6-methoxyphenyl)-6-((4-((S)-3-hydroxypiperidin-1-yl)-5-(1-(2,2,2-trifluoroethyl)-1H-pyrazol-4-yl)pyridin-2-yl)amino)nicotinonitrile]",≤ 10
24,"COC(=O)c1ccc(Nc2cc(N3CCC[C@H](N)C3)c(-c3cnn(C4CCOCC4)c3)cn2)nc1-c1c(F)cccc1OC [Example 71, methyl 6-((4-((S)-3-aminopiperidin-1-yl)-5-(1-(tetrahydro-2H-pyran-4-yl)-1H-pyrazol-4-yl)pyridin-2-yl)amino)-2-(2-fluoro-6-methoxyphenyl)nicotinate hydrochloride]",≤ 10
25,"COc1cccc(F)c1-c1nccc(Nc2cc(N3CC[C@@H](C)[C@H](N)C3)c(-c3cnn(C(F)F)c3)cn2)n1 [Example 204, N-(4-((3S,4R)-3-amino-4-methylpiperidin-1-yl)-5-(1-(difluoromethyl)-1H-pyrazol-4-yl)pyridin-2-yl)-2-(2-fluoro-6-methoxyphenyl)pyrimidin-4-amine hydrochloride]",≤ 10
